Results on five substances are retold here after paper PMC12375970, “Probing the extent of importin‐α targeting of the TAF8 NLS by eliminating its cationic net‐charge” (Protein Science : A Publication of the Protein Society, 2025).

Usually Kd stands for the equilibrium constant for the complex coming apart.

Data set [1] can be described thus: Solubility of the synthesized peptides in water. The settings on record: synthesized peptide.
The target in data set [2] is T1, mImpα2 (Mus musculus, UniProt P52293).
T1 construct: MImpα2, residues 70–529, was co‐crystallized with each NLS analog; His-tag; made in house; host or cells: Escherichia coli BL21 (DE3)
Kind of data set: Microscale thermophoresis (MST). The format is binding. The settings on record: for Kd: RED-NHS-labelled mImpα2 60 nM, NLS 250 μM–7.6 nM, 20 mM Tris–HCl, 127 mM NaCl, pH 8.0, 0.5% Tween-20, mean ± SD of three experiments, read-out: KD, 1-binding site fitted model; for Hill Coeff.: Hill equation fit, mean ± SD of three experiments. The method, then: Microscale thermophoresis (MST) experiments were conducted using the Monolith NT.115 (Nanotemper, Germany). The RED‐NHS 2nd generation Nanotemper labeling kit (MO‐L011) was used to label mImpα2 in 20 mM Tris–HCl and 127 mM NaCl at pH 8.0. Ten microliter of RED‐NHS‐reacted mImpα2 at 60 nM was titrated against a serial 1:1 dilution (250 μM–7.6 nM) of 10 μL of NLS containing 0.5% Tween‐20, and the mixture was pipetted into 16 MST capillaries contained in a single cartridge. The samples were processed using default settings and followed the manufacturer's protocol. The binding model fits are detailed in Data S1.
A two-binding site and Hill fitting model were also performed by using the following equation in GraphPad. The experiments were repeated three times and the calculated affinity values were reported as the mean equilibrium KD ± standard deviation.
One binding site equation [11]:
Y= Et+Lt+KD- (Et+Lt+KD)2- 4EtLt2Et
Where Lt is the total ligand concentration; protein concentration is Et; KD is the dissociation constant or binding affinity.
Two binding site equation [11]: […]
Where KD1and KD2are the dissociation constants for binding site 1 and 2.
Where L is known, and cooperativity is explicitly reported as the Hill coefficient (n) […].

Data set [3] has as its target T1, mImpα2. Kind of data set: Apparent NLS–mImpα2 complex stability monitored by CD (thermal denaturation). It is filed as binding. The conditions noted are these: for T°: CD thermal denaturation of mImpα2 in the presence of the ligand (mImpα2 alone 36.35); for ∆H°u (T°): CD thermal denaturation of mImpα2 with ligand, Van't Hoff method; for ΔG°u (25°C) / ΔG°u (37°C) / ΔΔG°u (25°C) / ΔΔG°u (37°C): CD; for ΔG°u (25°C) / ΔG°u (37°C): mImpα2 with ligand; for ΔΔG°u (25°C) / ΔΔG°u (37°C): relative to mImpα2 alone. The method, then:
In the presence of TAF8 NLS, mImpα2 was stabilized, evidenced by the increase in temperature denaturation, shift in stability curves, and the reduction of the unfolded state (Figures S5a–c and 5a). The analogs also stabilized mImpα2, albeit to a lesser extent than TAF8 NLS.
CD measurements were conducted as previously described, including the determination of free energy using the Van't Hoff method (Jean‐Francois et al. [2003]). Fitting details are in Data S1.

The next data set deals with importin‐α. The settings on record: 1:1 stoichiometry; ref Trowitzsch et al. [2015]; read-out: Dissociation constant (KD) by ITC; cited from earlier work. The text has this:
The general transcription factor TFIID is essential for RNA polymerase II transcription initiation in eukaryotic cells. This megadalton protein complex, composed of several TATA‐binding‐associated factors (TAFs), is assembled into a functional transcription factor in the nucleus (Thomas and Chiang [2006]). […] The Berger group recently elucidated how an essential TFIID subcomplex consisting of TAF2, TAF8, and TAF10 is assembled in the cytoplasm (Trowitzsch et al. [2015]). […] Trowitzsch et al. originally reported K D value for TAF8 NLS of ~10 μM with 1:1 stoichiometry (Trowitzsch et al. [2015]). […] In c ...
(In ITC the heat of successive injections is recorded.)

A further data set has as its system Hela cells. The data set is described as follows: Fluorescence microscopy of nuclear localization of EGFP-NLS constructs, Hela. It is filed as cell-based. The conditions noted are these: Hela cells transfected with pCIneoEGFP constructs (EGFP fusions), 24 h post-transfection. The method, then:
The plasmids, cloning, and cell culture transfection methods are described in Data S1. Cells were fixed with 3% paraformaldehyde (Electron Microscopy Sciences, Cat#15710) for 15 min at room temperature; then rinsed thoroughly with PBS. Nuclear staining was performed using 1 μg/mL DAPI (Sigma, Cat#D9542) in PBS. Following staining, cells were rinsed again with PBS and mounted with glass coverslips using Vectashield Antifade Mounting Medium (Vector Laboratories, Cat#H‐1000).
Fluorescence imaging was performed using a Zeiss AxioImager.M2 microscope (RRID:SCR_024706) equipped with a 40× EC Plan‐NeoFluar (1.3 NA; oil) objective, X‐Cite XYLIS LED illumination system, and a Zeiss AxioCam mRm CCD monochrome camera. Image acquisition and initial processing were performed using ZEN Blue software (RRID:SCR_013672), and additional analyses were performed using Fiji (ImageJ; RRID:SCR_002285). For each experimental condition, 15 randomly selected fields of view were imaged. Line overlay fluorescence intensity was quantified using the line profile tool in Fiji. A straight line across the entire cell length was drawn and centered on the nucleus. The “Plot Profile” function was used to extract pixel intensity values along the line. Three cells were analyzed per condition, and the data were presented as mean fluorescence intensity values. […]

Ends that are not written are not given here.

For the substance PVKKEKIEE [A2], in data set [1], the “Soluble in H20” value is listed as “Yes”. Moreover, on mImpα2 [2], the Kd was found to be 15.9 ± 3.1 µM.
For the substance EVKKPKIDE [A1], at mImpα2 [2], the Kd came out at 13.8 ± 2.31 µM.
Take PVKKPKIRR [TAF8]: the “Soluble in H20” value in data set [1] was “Yes”. Further, on mImpα2 [3], the “T°” value is 47.45 °C, the “∆H°u (T°)” value was determined as 711 kJ/mol, the “ΔG°u (25°C)” value worked out at 46.4 kJ/mol and the “ΔG°u (37°C)” value came out at 22.6 kJ/mol. For the same substance, at mImpα2 [3], the “ΔΔG°u (25°C)” value came to 36 kJ/mol and the “ΔΔG°u (37°C)” value was 23.4 kJ/mol. Also, on mImpα2 [2], the “Hill Coeff.” value was 3.1 ± 0.39 and the Kd stood at 1.21 ± 0.313 µM. For the same substance, at importin‐α, the Kd was ~10 µM.
As to H-PEKKPKIDE-OH [A3], at mImpα2 [3], the “T°” value was determined as 40.55 °C, the “∆H°u (T°)” value is 397 kJ/mol, the “ΔG°u (25°C)” value turned out to be 18 kJ/mol and the “ΔG°u (37°C)” value worked out at 4.6 kJ/mol. Moreover, at mImpα2 [3], the “ΔΔG°u (25°C)” value turned out to be 7.53 kJ/mol and the “ΔΔG°u (37°C)” value turned out to be 5.44 kJ/mol. For the same substance, at mImpα2 [2], the “Hill Coeff.” value is given as 0.71 ± 0.30 and the equilibrium dissociation constant (Kd) turned out to be 10.6 ± 2.14 µM.
Regarding PVKKEKIDE [A4], at mImpα2 [3], the “T°” value was 37.15 °C, the “∆H°u (T°)” value stood at 368 kJ/mol, the “ΔG°u (25°C)” value is 13.4 kJ/mol and the “ΔG°u (37°C)” value was 0.42 kJ/mol. Further, on mImpα2 [3], the “ΔΔG°u (25°C)” value came out at 2.9 kJ/mol and the “ΔΔG°u (37°C)” value amounted to 1.3 kJ/mol. Further, the “Nuclear localization (fluorescence)” value in the data set with Hela cells is on record as “outperformed A3 in promoting nuclear localization”. At mImpα2 [2], the “Hill Coeff.” value came to 0.64 ± 0.24 and the Kd was 16.7 ± 1.96 µM.
